In patent EP4692089A1, “NITROGEN-CONTAINING HETEROCYCLIC COMPOUND AS AAK1 INHIBITOR” (Alicorn Pharmaceutical Co., Ltd., priority 2023, dated 2024):
Where a name gives a salt, the structure may show the parent alone.

Tests used:
[1] = Blood-brain distribution in DPNP model rats; settings: 1 mg/kg
Protocol: Experimental objective: This experiment aims to investigate the analgesic effect of test compounds on streptozotocin (STZ)-induced peripheral neuropathic pain (DPNP) in diabetic rat models and the brain-blood distribution of the compounds associated with the efficacy, via single oral gavage (ig.) administration.
After successful modeling, the baseline plantar pain threshold of the rats was tested using the Von Frey (UP-Down method) as the baseline pain threshold before administration, and the rats were evenly grouped according to their pain thresholds. The groups included a blank control group, a model group, a positive control group (1 mg/kg), a Compound 26 (0.5 mg/kg) group, and a Compound 26 (1 mg/kg) group. The next day, the rats were administered the vehicle or corresponding drugs. At 2 h, 3 h, 4 h, 5 h, and 6 h after administration, the pain threshold of the plantar region on the affected side of rats was determined using Von Frey filaments to calculate the pain threshold improvement rate of the test compounds against neuropathic pain in diabetic rats, and to observe the time-effect relationship. After the experiment, rats from groups G3-G5 (numbers 1-3 per group) were sacrificed, and plasma and brain tissue samples were collected for testing.

AAK1 = target: T1, AAK1 (Homo sapiens, UniProt Q2M2I8); assay: Effect on AP2M1 phosphorylation in 293T cells co-transfected with AAK1 and AP2M1 (Western blot, anti-p-AP2M1); assay type: cell-based; settings: p-AP2M1 level, incubated 3 h
T1 construct: HA; expressed in transfected cells; host or cells: 293T cells
From the text: Experimental objective: The objective of this test example is to determine the effect of compounds on AP2M1 phosphorylation in cells.
Background principle: Adaptor-associated kinase 1 (AAK1), also known as AP2-associated kinase 1, is a 104 kDa serine/threonine kinase. AAK1 interacts with the adaptor protein 2 (AP2) complex and phosphorylates the threonine residue in the micro-subunit of AP2 (AP2M1), thereby increasing its binding affinity for certain tyrosine-based or dileucine-based sorting signals of some membrane receptors. The inhibitory effect of compounds on AAK1 was evaluated by detecting the phosphorylation level of AP2M1 in cells, so as to screen candidate compounds.
On the second day, each T25 flask was co-transfected with 16 µg of plasmids (1 µg of AAK1/HA/pIRES and 15 µg of Flag/AP2MI/pcDNA) using a Lip2000 transfection reagent. On the third day, the cells were digested and resuspended, centrifuged at 1000 rpm for 5 minutes, and then seeded into 24-well plates at 450 µl per well (2 × 10^5 cells/well). Gradient dilutions of the compounds to be tested were prepared, 50 µl was added to each well, mixed thoroughly, and incubated at 37°C for 3 h. DMSO was set as a control, and cells without plasmid transfection were set as a blank control. After incubation, the cells were collected and washed twice with PBS. The cells were lysed on ice for 30 minutes using a cell lysis buffer containing the protease inhibitor PMSF. The concentration of protein samples was determined using a BCA kit. Protein electrophoresis: The voltage for the stacking gel was set at 60 V, and that for the separating gel was set at 120 V. After electrophoresis, electrotransfer was initiated. Electrotransfer conditions were set at 250 mA for 2 h. Blocking with 5% BSA was performed for 1 h. A specific primary antibody, anti-p-AP2M1, was added, and incubation was carried out overnight at 4°C on a shaker. Washing with TBST was conducted 4 times, with 2.5 minutes each time. A secondary antibody was incubated on a shaker at room temperature for 1 h. Washing with TBST was conducted 4 times, with 2.5 minutes each time. ECL was used for development to detect the expression level of p-AP2M1. Western blot bands were processed and converted using Image J and GraphPad software to calculate IC50.
IC50 (half maximal inhibitory concentration) refers to the half-inhibitory concentration of the measured antagonist. It can indicate the concentration of a certain drug or substance (inhibitor) that achieves half of the inhibition effect on certain biological processes (or certain substances involved in these processes, such as enzymes, cellular receptors, or microorganisms).

AAK1 (30-330) protein [2] = target: T2, AAK1 (30-330) protein (Homo sapiens, UniProt Q2M2I8); assay: AAK1 kinase assay (ADP generated, detected by HPLC); assay type: biochemical; settings: 3.5 nM AAK1, 22 µM ATP, 25°C, 3 h
T2 construct: (His)6x (N); TEV protease cleavage site (N); made in house; host or cells: Escherichia coli BL21(DE3)
From the text: Experimental objective: The objective of this test example is to test the effect of compounds on AAK1 kinase function.
Background principle: AAK1 phosphorylates the threonine residue in the micro-subunit of AP2 (AP2M1). In this process, ATP provides phosphate groups to generate ADP. Therefore, the activity of AAK1 kinase can be evaluated by detecting the amount of ADP generated.
(§1) Expression of AAK1 (30-330) protein: The AAK1 sequence (residues 30-330) was cloned into the pET24N vector with an N-terminal (His)6x tag and a tobacco etch virus (TEV) protease cleavage site. The constructed vector was transformed into Escherichia coli BL21(DE3). When the bacteria were cultured with shaking to reach an OD value of 0.6, 1 mM IPTG was added. […] The bacterial cells were collected and subjected to ultrasonic disruption. The supernatant was obtained by centrifugation, and the protein was purified using Ni-NTA. After dialysis, the concentration and purity of the protein were determined.
The reaction mixture was incubated in a metal bath at 25°C for 3 h. The reaction was terminated by adding 1% SDS, and the amount of ADP generated was detected by HPLC. IC50 values were calculated using GraphPad software.

[3] = Pharmacokinetic test in SD rats; settings: rat, plasma, po, 3 mg/kg
Protocol: Experimental objective: The objective of this experimental example is to test the pharmacokinetic profile of compounds in SD rats.
Route of administration: The animals were weighed before administration, and the dose was calculated based on their body weight. Administration was performed via intravenous injection and oral gavage.
Blood collection time points: After administration, for IV group: 0.083 h, 0.25 h, 0.5 h, 1 h, 2 h, 4 h, 8 h, and 24 h; for PO group: 0.25 h, 0.5 h, 1 h, 2 h, 4 h, 6 h, 8 h, and 24 h. Blood was collected via the jugular vein, with approximately 0.2 mL collected for each sample. The blood samples were anticoagulated with K2-EDTA and placed on ice after collection.
Plasma sample processing: After collection, the blood samples were placed on ice and centrifuged within 1 hour to separate plasma (centrifugation conditions: 6800g, 6 minutes, 2-8°C). The plasma samples were stored in a -80°C refrigerator before analysis.
Result analysis: Pharmacokinetic parameters were calculated using Phoenix WinNonlin 7.0 based on the plasma concentration data at different time points.

[4] = test system: streptozotocin (STZ)-induced peripheral neuropathic pain (DPNP) in diabetic rat models; assay: Efficacy test in diabetic peripheral neuropathic pain (DPNP), Von Frey pain threshold; assay type: in vivo, SD rats
Protocol: Experimental methods: After the adaptation period, the rats were tested for baseline plantar pain threshold using the Von Frey (Up-Down method) before modeling. Subsequently, except for the blank control group, all other rats were fasted for 16 hours with free access to water and then intraperitoneally injected with streptozotocin for modeling (65 mg/kg; 2 mL/kg). One week after modeling, blood was collected from the tail tip to detect blood glucose levels after a 4-hour fast. Rats with blood glucose levels higher than 16.7 mmol/L were considered diabetic.

AAK1 (30-330) protein [5] = target: T2, AAK1 (30-330) protein; assay: CETSA test of binding ability to AAK1 protein (Western blot)
Protocol: Experimental objective: To detect the binding ability of compounds to AAK1 protein by means of a CETSA experiment.
Background principle: The CETSA experiment is a molecular detection means for measuring the affinity between drugs and target proteins. […] When a candidate drug is co-incubated with a target protein, if the candidate drug is an inhibitor of AAK1, it can bind to AAK1. […] On the contrary, the stability of the AAK1 protein after heating will be poorer, and the amount of the detected protein will be lower. In this way, the binding ability of the drug to the target protein can be evaluated, which is used for the screening of AAK1 protein inhibitors.
as §1
CETSA sample preparation: Samples were incubated with candidate drugs, control drugs, and control reagents separately for 30 minutes. Each group of samples was heated at approximately 10 pre-set temperature points. After being returned to room temperature, the samples were centrifuged at 20000 g, and the supernatants were collected. Protein samples were denatured by heating at 100°C for 10 minutes with a sample buffer. After the samples were returned to room temperature, Western blot detection was performed on them; the protein loading amount was controlled at 20 µg. […] The same operations were followed, and Western blot detection was conducted. Protein electrophoresis: The voltage for the stacking gel was set at 60 V, and that for the separating gel was set at 120 V. After electrophoresis, electrotransfer was initiated. Electrotransfer conditions were set at 250 mA for 2 h. Blocking with 5% BSA was performed for 1 h. A specific primary antibody was added, and incubation was carried out overnight at 4°C on a shaker. Washing with TBST was conducted 4 times, with 2.5 minutes each time. A secondary antibody was incubated on a shaker at room temperature for 1 h. Washing with TBST was conducted 4 times, with 2.5 minutes each time. ECL was used for development to detect the expression levels of AAK1 protein in different groups and at each temperature point. Western blot bands were processed and converted using Image J and GraphPad software to calculate EC50.

[6] = DPNP model rats, 6 h after intragastric administration

T2 sequence (Q2M2I8 30-330): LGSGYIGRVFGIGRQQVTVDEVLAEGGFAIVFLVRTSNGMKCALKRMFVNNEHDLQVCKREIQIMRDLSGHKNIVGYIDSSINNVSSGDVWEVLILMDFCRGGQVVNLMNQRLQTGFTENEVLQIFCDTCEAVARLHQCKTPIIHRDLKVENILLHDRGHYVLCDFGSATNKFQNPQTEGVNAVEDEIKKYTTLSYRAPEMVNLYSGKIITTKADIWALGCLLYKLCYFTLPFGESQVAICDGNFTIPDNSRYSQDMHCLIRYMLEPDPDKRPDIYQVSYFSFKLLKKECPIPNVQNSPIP
T1 sequence (Q2M2I8 whole entry): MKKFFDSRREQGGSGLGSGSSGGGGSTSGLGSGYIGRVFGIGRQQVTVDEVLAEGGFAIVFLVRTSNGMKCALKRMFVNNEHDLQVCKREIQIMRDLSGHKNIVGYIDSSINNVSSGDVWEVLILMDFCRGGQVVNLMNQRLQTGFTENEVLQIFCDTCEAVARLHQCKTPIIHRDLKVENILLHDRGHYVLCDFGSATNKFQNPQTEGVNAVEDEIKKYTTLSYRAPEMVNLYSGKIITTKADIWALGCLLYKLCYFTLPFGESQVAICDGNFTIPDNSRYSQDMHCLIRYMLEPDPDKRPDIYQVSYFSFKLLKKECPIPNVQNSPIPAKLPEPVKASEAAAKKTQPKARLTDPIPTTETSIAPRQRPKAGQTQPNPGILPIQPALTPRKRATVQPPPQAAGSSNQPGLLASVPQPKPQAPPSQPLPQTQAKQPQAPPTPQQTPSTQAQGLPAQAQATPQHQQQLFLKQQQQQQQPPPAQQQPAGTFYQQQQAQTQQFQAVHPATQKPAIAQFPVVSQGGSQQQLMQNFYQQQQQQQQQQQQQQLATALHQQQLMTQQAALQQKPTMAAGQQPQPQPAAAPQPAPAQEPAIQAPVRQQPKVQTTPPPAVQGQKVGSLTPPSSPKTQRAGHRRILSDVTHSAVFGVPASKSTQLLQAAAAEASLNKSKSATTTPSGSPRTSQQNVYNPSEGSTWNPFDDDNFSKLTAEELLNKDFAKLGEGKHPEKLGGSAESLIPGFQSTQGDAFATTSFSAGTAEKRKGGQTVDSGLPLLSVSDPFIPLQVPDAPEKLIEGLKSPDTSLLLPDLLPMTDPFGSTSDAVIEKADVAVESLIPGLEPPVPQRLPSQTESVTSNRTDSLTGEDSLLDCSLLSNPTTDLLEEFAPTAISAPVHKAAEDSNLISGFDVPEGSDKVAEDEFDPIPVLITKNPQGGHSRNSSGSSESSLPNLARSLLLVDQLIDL

CC(C)C[C@](C)(N)COc1ccc(-c2ccnc(C(F)F)c2)nc1C(F)F [BMS-986176, reference compound]
Brain tissue concentration [1, 6]: 26.94 ng/mL | Brain tissue concentration* [1, 6]: 296.36 ng/g | Plasma concentration [1, 6]: 34.38 ng/mL | Kp at 6 h ([1]; rat, brain, po): 8.62 | IC50 (AAK1): 100 to 1000 nM | IC50 (AAK1 (30-330) protein [2]): 260 nM | AUC(0-inf) [3]: 1160 ng·h/mL | AUC(0-t) [3]: 1070 ng·h/mL | Cmax [3]: 85.6 ng/mL | MRT inf [3]: 9.5 h | MRT last [3]: 7.52 h | Tmax [3]: 3.33 h | half-life [3]: 6.32 h | MWT (g) After modeling ([4]; 1 mg/kg group, after modeling, before administration, x±s, n=5): 7.00 ± 1.83 g | Pain threshold improvement rate 2h ([4]; 1 mg/kg single ig., 2 h): 64.51 | MWT (g) 2h ([4]; 1 mg/kg single ig., 2 h after administration, x±s, n=5): 10.38 ± 2.59 g | Pain threshold improvement rate 3 h ([4]; 1 mg/kg single ig., 3 h): 42.24 | MWT (g) 3 h ([4]; 1 mg/kg single ig., 3 h after administration, x±s, n=5): 7.51 ± 4.29 g | Pain threshold improvement rate 4h ([4]; 1 mg/kg single ig., 4 h): 20.35 | MWT (g) 4 h ([4]; 1 mg/kg single ig., 4 h after administration, x±s, n=5): 5.06 ± 2.76 g | Pain threshold improvement rate 5 h ([4]; 1 mg/kg single ig., 5 h): 16.32 | MWT (g) 5 h ([4]; 1 mg/kg single ig., 5 h after administration, x±s, n=5): 4.82 ± 1.07 g | Pain threshold improvement rate 6h ([4]; 1 mg/kg single ig., 6 h): 20.85 | MWT (g) 6h ([4]; 1 mg/kg single ig., 6 h after administration, x±s, n=5): 4.63 ± 0.64 g | duration of analgesia ([4]; 1 mg/kg, time after administration): ≤ 4 h | EC50 (AAK1 (30-330) protein [5]): 100 to 1000 nM

COc1ccnc2[nH]cc(-c3ccc(OC[C@](C)(N)CC(C)C)c(C(F)F)n3)c12 [Compound 17, (R)-1-{[2-(difluoromethyl)-6-(4-methoxy-1H-pyrrolo[2,3-b]pyridin-3-yl)pyridin-3-yl]oxy}-2,4-dimethylpentan-2-amine]
IC50 (AAK1): 100 to 1000 nM | IC50 (AAK1 (30-330) protein [2]): 56.9 nM | EC50 (AAK1 (30-330) protein [5]): 10 to 100 nM

CC(C)C[C@](C)(N)COc1ccc(-c2c[nH]c3ncc(C(F)F)cc23)nc1C(F)F [Compound 28, (S)-1-{[2-(difluoromethyl)-6-[5-(difluoromethyl)-1H-pyrrolo[2,3-b]pyridin-3-yl]pyridin-3-yl]oxy}-2,4-dimethylpentan-2-amine formate]
IC50 (AAK1): 10 to 100 nM | IC50 (AAK1 (30-330) protein [2]): 65.3 nM | EC50 (AAK1 (30-330) protein [5]): 10 to 100 nM
